Bridge positions count the residues as written; N and C are the ends. Square brackets hold non-standard residues; d marks the D form. Peptide text beside a SMILES is read from it. AllylGly = C=CC[C@H](N)C(=O)O

Assay [1] addresses Neurotensin receptor type 2 (Homo sapiens, UniProt O95665). As to the kind of experiment: Displacement of [125I]Tyr3-neurotensin from human recombinant NTS2 stably expressed in human 1321N1 cell membranes incubated for 60 mins by gamma counter analysis. Also noted: species or system Cell membrane. A general note: Displacement assays read how much labelled ligand stays bound in the presence of the test substance.

The target in assay [2] is Neurotensin receptor type 1 (Homo sapiens, UniProt P30989). Nature of the assay: Displacement of [125I]Tyr3-neurotensin from human recombinant NTS1 stably expressed in CHO-K1 cell membranes incubated for 60 mins by gamma counter analysis. The arrangement: species or system Cell membrane.
Sequence of Neurotensin receptor type 1 (P30989 whole entry): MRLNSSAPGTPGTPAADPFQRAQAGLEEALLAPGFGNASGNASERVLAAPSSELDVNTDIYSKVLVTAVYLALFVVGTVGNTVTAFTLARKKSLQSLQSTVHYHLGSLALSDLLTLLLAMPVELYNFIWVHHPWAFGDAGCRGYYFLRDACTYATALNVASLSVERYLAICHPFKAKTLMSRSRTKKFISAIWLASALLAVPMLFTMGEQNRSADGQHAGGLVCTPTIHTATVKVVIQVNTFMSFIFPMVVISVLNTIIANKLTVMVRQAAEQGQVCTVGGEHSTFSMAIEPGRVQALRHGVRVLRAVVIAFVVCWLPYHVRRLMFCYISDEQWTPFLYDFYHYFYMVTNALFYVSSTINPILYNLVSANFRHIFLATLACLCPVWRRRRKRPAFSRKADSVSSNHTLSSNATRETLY

Sequence of Neurotensin receptor type 2 (O95665 whole entry): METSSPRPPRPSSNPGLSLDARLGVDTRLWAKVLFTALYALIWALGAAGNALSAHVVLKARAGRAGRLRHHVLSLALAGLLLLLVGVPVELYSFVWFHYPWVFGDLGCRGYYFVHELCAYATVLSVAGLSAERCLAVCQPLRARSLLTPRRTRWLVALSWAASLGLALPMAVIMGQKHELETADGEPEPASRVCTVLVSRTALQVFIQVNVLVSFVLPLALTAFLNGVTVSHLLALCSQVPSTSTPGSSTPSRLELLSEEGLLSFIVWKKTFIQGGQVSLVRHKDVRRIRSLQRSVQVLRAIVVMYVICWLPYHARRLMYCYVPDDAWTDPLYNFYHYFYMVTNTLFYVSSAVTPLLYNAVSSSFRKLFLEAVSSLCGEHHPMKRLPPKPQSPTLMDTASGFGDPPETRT

A word on the Ki: it is the dissociation constant of the complex between target and ligand, obtained from inhibition or displacement. With `CC[C@@H](C)[C@H](NC(=O)[C@H](Cc1ccc(O)cc1)NC(=O)[C@@H]1C/C=C\C[C@H](N)C(=O)N[C@@H](CCCCN)C(=O)N[C@@H](CCCCN)C(=O)N1)C(=O)N[C@@H](CC(C)C)C(=O)O`, the Ki in assay [1] and in assay [2] was over 10000 nM each time. As to `CC[C@@H](C)[C@H](NC(=O)[C@H](Cc1ccc(O)cc1)NC(=O)[C@@H]1C/C=C\C[C@H](NC(=O)[C@@H](N)CCCCN)C(=O)N[C@@H](CCCCN)C(=O)N1)C(=O)N[C@@H](CC(C)C)C(=O)O`, the Ki in assay [1] was over 10000 nM; in assay [2], over 100000 nM. As for `CC(C)C[C@H](NC(=O)[C@H](Cc1ccc(O)cc1)NC(=O)[C@H]1C/C=C\C[C@@H](N)C(=O)N[C@@H](CCCCN)C(=O)N[C@@H](CCCCN)C(=O)N1)C(=O)O`, the Ki is 2200 nM in assay [1] and over 100000 nM in assay [2]. The matching figures for `CC(C)C[C@H](NC(=O)[C@H](Cc1ccc(O)cc1)NC(=O)[C@H]1CCCN1C(=O)[C@@H]1C/C=C\C[C@H](N)C(=O)N[C@@H](CCCCN)C(=O)N[C@@H](CCCCN)C(=O)N1)C(=O)O`: 200 nM and over 100000 nM.

For `CC[C@H](C)[C@H](NC(=O)[C@H](Cc1ccc(O)cc1)NC(=O)[C@H](C)NC(=O)[C@H](CCCNC(=N)N)NC(=O)[C@H](CCCNC(=N)N)NC(=O)[C@@H]1CCCN1C(=O)[C@H](CCCCN)NC(=O)[C@H](CC(N)=O)NC(=O)[C@H](CCC(=O)O)NC(=O)[C@H](Cc1ccc(O)cc1)NC(=O)[C@H](CC(C)C)NC(=O)[C@@H]1CCC(=O)N1)C(=O)N[C@@H](CC(C)C)C(=O)O`, the Ki was 16 nM in assay [1] and 161 nM in assay [2].

Turning to `CC[C@H](C)[C@H](NC(=O)[C@H](Cc1ccc(O)cc1)NC(=O)[C@@H]1CCCN1C(=O)[C@H](CCCNC(=N)N)NC(=O)[C@H](CCCNC(=N)N)NC(=O)[C@@H]1CCCN1C(=O)[C@H](CCCCN)NC(=O)[C@H](CC(N)=O)NC(=O)[C@H](CCC(=O)O)NC(=O)[C@H](Cc1ccc(O)cc1)NC(=O)[C@H](C)NC(=O)[C@@H]1CCC(=O)N1)C(=O)N[C@@H](CC(C)C)C(=O)O`, the Ki in assay [1] turned out to be 6.8 nM; in assay [2], 2.4 nM. The matching figures for `CC[C@H](C)[C@H](NC(=O)[C@H](Cc1ccc(O)cc1)NC(=O)[C@@H]1CCCN1C(=O)[C@H](CCCNC(=N)N)NC(=O)[C@H](CCCNC(=N)N)NC(=O)[C@@H]1CCCN1C(=O)[C@H](CCCCN)NC(=O)[C@H](CC(N)=O)NC(=O)[C@H](C)NC(=O)[C@H](Cc1ccc(O)cc1)NC(=O)[C@H](CC(C)C)NC(=O)[C@@H]1CCC(=O)N1)C(=O)N[C@@H](CC(C)C)C(=O)O`: 2.7 nM and 1.8 nM. In the case of `CC[C@@H](C)[C@H](NC(=O)[C@@H]1C/C=C\C[C@H](N)C(=O)N[C@@H](CCCCN)C(=O)N[C@@H](CCCCN)C(=O)N[C@@H](Cc2ccc(O)cc2)C(=O)N1)C(=O)N[C@@H](CC(C)C)C(=O)O`, the figures for the Ki in assay [1] and in assay [2] were 1300 nM and over 10000 nM, respectively.

Regarding `CC(C)C[C@H](NC(=O)[C@H](Cc1ccc(O)cc1)NC(=O)[C@@H]1C/C=C\C[C@@H](N)C(=O)N[C@@H](CCCCN)C(=O)N[C@@H](CCCCN)C(=O)N1)C(=O)O`, the Ki was 100 nM in assay [1] and over 100000 nM in assay [2]. For the compound H-RRPYL-OH, the Ki in assay [1] was 391 nM; in assay [2], over 100000 nM.

On to `CC[C@H](C)[C@H](NC(=O)[C@H](Cc1ccc(O)cc1)NC(=O)[C@@H]1CCCN1C(=O)[C@H](CCCNC(=N)N)NC(=O)[C@H](CCCNC(=N)N)NC(=O)[C@@H]1CCCN1C(=O)[C@H](CCCCN)NC(=O)[C@H](CC(N)=O)NC(=O)[C@H](CCC(=O)O)NC(=O)[C@H](C)NC(=O)[C@H](CC(C)C)NC(=O)[C@@H]1CCC(=O)N1)C(=O)N[C@@H](CC(C)C)C(=O)O`, for which the Ki in assay [1] is 8.7 nM; in assay [2] it was 2.8 nM.

`CC[C@H](C)[C@H](NC(=O)[C@H](C)NC(=O)[C@@H]1CCCN1C(=O)[C@H](CCCN=C(N)N)NC(=O)[C@H](CCCN=C(N)N)NC(=O)[C@@H]1CCCN1C(=O)[C@H](CCCCN)NC(=O)[C@H](CC(N)=O)NC(=O)[C@H](CCC(=O)O)NC(=O)[C@H](Cc1ccc(O)cc1)NC(=O)[C@H](CC(C)C)NC(=O)[C@@H]1CCC(=O)N1)C(=O)N[C@@H](CC(C)C)C(=O)O`: the Ki in assay [1] was 590 nM; in assay [2], over 10000 nM.

As for `CC[C@H](C)[C@H](NC(=O)[C@H](Cc1ccc(O)cc1)NC(=O)[C@H](CCCCN)NC(=O)[C@@H]1C/C=C\C[C@H](N)C(=O)N[C@@H](CCCCN)C(=O)N1)C(=O)N[C@@H](CC(C)C)C(=O)O` (H-[AllylGly]K[AllylGly]KYIL-OH; staple (Z) 1-3), the Ki was over 10000 nM in assay [1] and over 100000 nM in assay [2].

On to `CC(C)C[C@H](NC(=O)[C@H](Cc1ccc(O)cc1)NC(=O)[C@@H]1CSSC[C@H](N)C(=O)N[C@@H](CCCCN)C(=O)N[C@@H](CCCCN)C(=O)N1)C(=O)O` (H-CKKCYL-OH; disulfide 1-4), for which the results for the Ki in assay [1] and in assay [2] were 1500 nM and over 100000 nM, respectively. For `CC[C@H](C)[C@H](NC(=O)[C@H](Cc1ccc(O)cc1)NC(=O)[C@@H]1CCCN1C(=O)[C@@H](C)NC(=O)[C@H](CCCN=C(N)N)NC(=O)[C@@H]1CCCN1C(=O)[C@H](CCCCN)NC(=O)[C@H](CC(N)=O)NC(=O)[C@H](CCC(=O)O)NC(=O)[C@H](Cc1ccc(O)cc1)NC(=O)[C@H](CC(C)C)NC(=O)[C@@H]1CCC(=O)N1)C(=O)N[C@@H](CC(C)C)C(=O)O`, the Ki in assay [2] came to 174 nM.

Consider `CC(C)C[C@H](NC(=O)[C@H](Cc1ccc(O)cc1)NC(=O)[C@H]1C/C=C\C[C@H](N)C(=O)N[C@@H](CCCCN)C(=O)N[C@@H](CCCCN)C(=O)N2CCC[C@H]2C(=O)N1)C(=O)O`, for which the figures for the Ki in assay [1] and in assay [2] were 2500 nM and over 100000 nM, respectively. Regarding `CC[C@H](C)[C@H](NC(=O)[C@H](Cc1ccc(O)cc1)NC(=O)[C@@H]1CCCN1C(=O)[C@H](CCCNC(=N)N)NC(=O)[C@H](CCCNC(=N)N)NC(=O)[C@H](C)NC(=O)[C@H](CCCCN)NC(=O)[C@H](CC(N)=O)NC(=O)[C@H](CCC(=O)O)NC(=O)[C@H](Cc1ccc(O)cc1)NC(=O)[C@H](CC(C)C)NC(=O)[C@@H]1CCC(=O)N1)C(=O)N[C@@H](CC(C)C)C(=O)O`, the values for the Ki in assay [1] and in assay [2] were 4.6 nM and 2.9 nM, respectively. The matching figures for `CC[C@@H](C)[C@H](NC(=O)[C@H](Cc1ccc(O)cc1)NC(=O)[C@@H]1C/C=C\C[C@H](N)C(=O)N[C@@H](CCCCN)C(=O)N[C@@H](CCCCN)C(=O)N1)C(=O)O`: over 10000 nM and over 100000 nM. In the same order, the values of `CC[C@H](C)[C@H](NC(=O)[C@H](Cc1ccc(O)cc1)NC(=O)[C@@H]1CCCN1C(=O)[C@H](CCCNC(=N)N)NC(=O)[C@H](CCCNC(=N)N)NC(=O)[C@@H]1CCCN1C(=O)[C@H](CCCCN)NC(=O)[C@H](CC(N)=O)NC(=O)[C@H](CCC(=O)O)NC(=O)[C@H](Cc1ccc(O)cc1)NC(=O)[C@H](CC(C)C)NC(=O)[C@@H]1CCC(=O)N1)C(=O)N[C@@H](C)C(=O)O` are 655 nM and over 10000 nM. In the same order, the values of `CC[C@H](C)[C@H](NC(=O)[C@H](Cc1ccc(O)cc1)NC(=O)[C@@H]1CCCN1C(=O)[C@H](CCCNC(=N)N)NC(=O)[C@H](CCCNC(=N)N)NC(=O)[C@@H]1CCCN1C(=O)[C@H](CCCCN)NC(=O)[C@H](CC(N)=O)NC(=O)[C@H](CCC(=O)O)NC(=O)[C@H](Cc1ccc(O)cc1)NC(=O)[C@H](CC(C)C)NC(=O)[C@H](C)N)C(=O)N[C@@H](CC(C)C)C(=O)O` are 8.7 nM and 2 nM. Consider `CC[C@H](C)[C@H](NC(=O)[C@H](Cc1ccc(O)cc1)NC(=O)[C@@H]1CCCN1C(=O)[C@H](CCCNC(=N)N)NC(=O)[C@H](CCCNC(=N)N)NC(=O)[C@@H]1CCCN1C(=O)[C@H](C)NC(=O)[C@H](CC(N)=O)NC(=O)[C@H](CCC(=O)O)NC(=O)[C@H](Cc1ccc(O)cc1)NC(=O)[C@H](CC(C)C)NC(=O)[C@@H]1CCC(=O)N1)C(=O)N[C@@H](CC(C)C)C(=O)O`, for which the Ki stood at 9.3 nM in assay [1] and 6 nM in assay [2]. The matching figures for `CC[C@H](C)[C@H](NC(=O)[C@H](Cc1ccc(O)cc1)NC(=O)[C@@H]1CCCN1C(=O)[C@H](CCCNC(=N)N)NC(=O)[C@@H](N)CCCNC(=N)N)C(=O)O`: 620 nM and over 100000 nM. In the case of `CC[C@H](C)[C@H](NC(=O)[C@H](Cc1ccc(O)cc1)NC(=O)[C@@H]1CCCN1C(=O)[C@H](CCCNC(=N)N)NC(=O)[C@H](CCCNC(=N)N)NC(=O)[C@@H]1CCCN1C(=O)[C@H](CCCCN)NC(=O)[C@H](C)NC(=O)[C@H](CCC(=O)O)NC(=O)[C@H](Cc1ccc(O)cc1)NC(=O)[C@H](CC(C)C)NC(=O)[C@@H]1CCC(=O)N1)C(=O)N[C@@H](CC(C)C)C(=O)O`, the Ki in assay [1] was 8.8 nM; in assay [2] it was 2.4 nM.

In the case of `CC(C)C[C@H](NC(=O)[C@H](Cc1ccc(O)cc1)NC(=O)[C@H]1C/C=C\C[C@H](N)C(=O)N[C@@H](CCCCN)C(=O)N[C@@H](CCCCN)C(=O)N1)C(=O)O`, the inhibition constant (Ki) in assay [1] is 1100 nM; in assay [2], over 100000 nM.

Consider `CC(C)C[C@H](NC(=O)[C@H](Cc1ccc(O)cc1)NC(=O)[C@@H]1CCCC[C@H](N)C(=O)N[C@@H](CCCCN)C(=O)N[C@@H](CCCCN)C(=O)N1)C(=O)O`, for which the figures for the Ki in assay [1] and in assay [2] were 90 nM and over 100000 nM, respectively.

Turning to `CC[C@H](C)[C@H](NC(=O)[C@H](Cc1ccc(O)cc1)NC(=O)[C@@H]1CCCN1C(=O)[C@H](CCCNC(=N)N)NC(=O)[C@H](C)NC(=O)[C@@H]1CCCN1C(=O)[C@H](CCCCN)NC(=O)[C@H](CC(N)=O)NC(=O)[C@H](CCC(=O)O)NC(=O)[C@H](Cc1ccc(O)cc1)NC(=O)[C@H](CC(C)C)NC(=O)[C@@H]1CCC(=O)N1)C(=O)N[C@@H](CC(C)C)C(=O)O`, the Ki in assay [1] turned out to be 95 nM; in assay [2] it was 75 nM. As for `CC[C@H](C)[C@H](NC(=O)[C@H](Cc1ccc(O)cc1)NC(=O)[C@@H]1CCCN1C(=O)[C@H](C)NC(=O)[C@H](CCCN=C(N)N)NC(=O)[C@@H]1CCCN1C(=O)[C@H](CCCCN)NC(=O)[C@H](CC(N)=O)NC(=O)[C@H](CCC(=O)O)NC(=O)[C@H](Cc1ccc(O)cc1)NC(=O)[C@H](CC(C)C)NC(=O)[C@@H]1CCC(=O)N1)C(=O)N[C@@H](CC(C)C)C(=O)O`, in assay [1], the Ki is 10 nM. Turning to `CC[C@@H](C)[C@H](NC(=O)[C@H](CC(C)C)NC(=O)[C@H](Cc1ccc(O)cc1)NC(=O)[C@@H]1C/C=C\C[C@H](N)C(=O)N[C@@H](CCCCN)C(=O)N[C@@H](CCCCN)C(=O)N1)C(=O)O`, the Ki in assay [1] is over 10000 nM; in assay [2], over 100000 nM.
